According to article PMC7177633, “Effective Cellular Transport of Ortho-Halogenated Sulfonamide Derivatives of Metformin Is Related to Improved Antiproliferative Activity and Apoptosis Induction in MCF-7 Cells” (International Journal of Molecular Sciences, 2020):
Read-outs that look alike come from different tables or passages of the source.

Experiments:
MDA-MB-231 cells [1] = assay: Intracellular GSH and GSSG, MDA-MB-231; format: cell-based, human; conditions: MDA-MB-231, 24 h, reference agents: Ascorbic acid 200 µM, AAPH 10 mM
Description: (§1) The quantitative determination of glutathione and glutathione disulfide was performed using the enzymatic recycling method according to the protocol of Rahman. The cells were seeded at a density of 2 × 10^5 per well in a 6-well plate and cultured for 48 h. Then, the cells were treated with tested compounds 1, 4 and 7 at their respective ¼ and ½ IC50 values for MCF-7 and MDA-MB-231 cells. Additionally, controls with pure medium, AAPH (2,2′-Azobis(2-methylpropionamidine) dihydro-chloride, Sigma Aldrich, St. Louis, MO, USA) and ascorbic acid (Polish Chemical Reagents, Poland) were performed. The cells were incubated with compounds for another 24 h, then washed twice with 2 mL of cold, Ca^2+-/Mg^2+-free PBS (Biomed Lublin, Lublin, Poland). The cells were harvested using 1-mL accutase (Sigma Aldrich, St. Louis, MO, USA), and the wells were washed with 1 mL of cold growth medium. The cells were transferred to prechilled 2.0-mL Eppendorf tubes and centrifuged at 1000× g for 5 min at 4 °C. The supernatant was discarded, the pellets were resuspended in 1 mL of cold PBS, the number of cells was determined in each sample and the cellular suspension was centrifuged again. PBS was discarded, and the pellets were stored covered with 30-µL PBS at –70 °C. The following day, the cells were suspended in 0.5 mL of ice-cold extraction buffer (0.1% Triton-X (Polish Chemical Reagents, Gliwice, Poland) and 0.6% sulfosalicylic acid (Sigma Aldrich) in a potassium phosphate buffer with EDTA (Sigma Aldrich)) and sonicated in icy water for 3 min with vortexing every 30 s. The cells were frozen once again at −80 °C, defrosted on ice and frozen once again. Following the second freeze–thaw cycle, the cells were centrifuged at 1500× g for 5 min at 4 °C, and then, immediately, the supernatant was transferred to prechilled Eppendorf tubes. The samples were divided into two parts: one was used to measure GSH, and the other one was derivatized by an addition of 4 µL of 2-vinylpyridine (diluted 1:10 with phosphate buffer) (Sigma Aldrich, St. Louis, MO, USA) to determine the GSSG content.
(§2) GSH measurements included an addition of 20 µL of the tested sample, blank or GSH standard, 120 µL of the mixture of an equal volume of DTNB solution (2 mg dissolved in 3 mL of phosphate buffer, Sigma Aldrich) and glutathione reductase (10 U in 3 mL of phosphate buffer, Sigma Aldrich, St. Louis, MO, USA) and 30 s of incubation to allow the conversion of GSSG to GSH. The final step included the addition of 60 µL of β-NADPH (2 mg dissolved in 3 mL of phosphate buffer, Sigma Aldrich). The absorbance was read immediately at 415 nm in a microplate reader (Bio-Rad), and the measurements were taken every 30 s for 2 min (6 readings in total). The amount of GSH was calculated on the basis of the calibration curve prepared using GSH (Sigma Aldrich, St. Louis, MO, USA) at concentrations ranging from 0.040 to 2.6 nmol/mL.
(§3) The quantification of GSSG in the test samples was performed according to the same procedure as GSH. The samples treated with 2-VP were incubated for one hour at room temperature, and then, 20 µL of the tested sample was analyzed using the same reagents which were applied in the GSH measurements. The amount of GSSG was calculated on the basis of the calibration curve, prepared using GSSG (Sigma Aldrich) at concentrations of 0.040–2.6 nmol/mL. The results are presented as mean ± SD, n = 6–8 and expressed as nmol per […].

MCF-7 cells [2] = assay: Intracellular GSH and GSSG, MCF-7; format: cell-based, human; conditions: MCF-7, 24 h, reference agents: Ascorbic acid 200 µM, AAPH 10 mM
Description: as §1, §2, §3

OCTs [3] = assay: Inhibition of [14C]choline uptake in MDA-MB-231 cells (competitive inhibition assay); format: cell-based, human; conditions: mean ± SD (n = 3)
Description: (§4) The following day, after removal of the culture medium, the cells were carefully washed with prewarmed HBSS (Hanks’ balanced salt solution) containing 125 mM NaCl, 4.8 mM KCl, 1.2 mM MgSO4, 1.2 mM KH2PO4, 1.3 mM CaCl2, 5.6 mM glucose and 25 mM HEPES (pH 7.4). […] Then, the cells were washed three times with ice-cold HBSS (500 μL) and were lysed with 250 μL of 0.1-M NaOH in the ice bath, and the lysate was mixed with 1.0 mL of an emulsifier safe cocktail (PerkinElmer, Waltham, MA, USA). The radioactivity was measured by liquid scintillation counting (MicroBeta^2 counter, PerkinElmer, Waltham, MA, USA). The studies were carried out with the use of at least three replicates from the same cell passage.

MDA-MB-231 cells [4] = assay: Uptake in the presence of OCT and MATE inhibitors, MDA-MB-231 cells; format: in vitro ADME, human
Description: (§5) The uptake of sulfonamide derivatives of metformin (1–9) in MCF-7 and MDA-MB-231 cells was studied also in the presence of disopyramide, cimetidine (OCT1 and 3 inhibitors), lopinavir (OCT and PMAT inhibitor) and methenamine (MATE and OCT2 inhibitors). The cells were incubated (37 °C, 10 min) with compounds 1–9 at concentrations of 400 and 800 μmol/L and inhibitors (disopyramide, cimetidine, lopinavir or methenamine) in 250 μL of prewarmed HBSS buffer. The protocol of determination of the compound concentration was as described above.

MCF-7 cells [5] = assay: Cellular uptake of metformin sulfonamides in MCF-7 cells (HPLC); format: in vitro ADME, human
Description: (§6) The uptake of metformin sulfonamides (1–9) in MCF-7 and MDA-MB-231 cells was studied by incubation of the cells with 10−3000 μmol/L of compounds in 250 μL of prewarmed HBSS buffer at 37 °C for 10 min. Subsequently, the cells were then washed three times with 500 μL of ice-cold HBSS and lysed with 250 μL of 0.1-M NaOH. The samples were collected, centrifuged (5 min, 1400 rpm) and the supernatants were analyzed by the HPLC method. The concentration of each compound in the cells was calculated on the basis of the standard curve prepared by spiking known amounts of every compound on the cell layers in 250 μL of 0.1-M NaOH.
(§7) The concentration of the studied sulfonamides (1–9) was assessed using the HPLC system, consisting of an Agilent 1100 binary pump (Agilent Technologies Inc., Wilmington, DE, USA), an 1100 micro-vacuum degasser, an HP 1050 autosampler and an HP 1050 variable wavelength detector (operated at 235 nm). The chromatographic separations of compounds 1–9 were conducted on an Agilent Zorbax SB-C18 analytical column (4.6 mm × 150 mm, 5 μm) using an isocratic elution of water containing 0.1% formic acid (pH ca. 3.0) and acetonitrile containing 0.1% formic acid with a changing ratio, depending on the compound. The analyses were conducted at room temperature (RT). The detailed procedure of chromatographic analysis was described in our previous paper. The studies were conducted in quadruplicates.
(§8) The protein concentrations in representative wells of each plate were assessed using a Bio-Rad protein assay according to the Bradford method (EnVision, PerkinElmer, Inc., Waltham, MA, USA).

MDA-MB-231 cells [6] = assay: Cellular uptake of metformin sulfonamides in MDA-MB-231 cells (HPLC); format: in vitro ADME, human
Description: as §6, §7, §8

MDA-MB-231 cells [7] = assay: Cell viability WST-1 assay, MDA-MB-231; format: cell-based; conditions: Homo sapiens, MDA-MB-231; WST-1, 24 h, mean ± SD (n = 6–8); read-out: IC50 inhibition of MDA-MB-231 cells' viability
Description: (§9) The viability of MCF-7 and MDA-MB-231 cells was determined using a colorimetric WST-1 assay (Takara, Takara Bio Europe, Saint-Germain-en-Laye, France). Both cell lines were seeded at a density of 1 × 10^4 per well on 96-well plates and were cultured for 24 h to obtain 70% confluence. The following day, the cells were treated with various concentrations of compounds 1–9 diluted in the cell culture medium ([…]). The cells were incubated with tested compounds or pure medium (control) for 24 h (37 °C, 5% CO2). Afterwards, the cells were washed with 100 μL of culture medium, and then, the reagent dissolved in the medium was added (100 μL). The plates were incubated at the standard condition for 1.5 h, and the absorbance was read at 450 nm using a microplate reader (iMARK, Bio-Rad, Bio-Rad Laboratories Inc., Hercules, CA, USA). […] The results of samples treated with the test compounds were expressed as a percentage of the control samples. The data were presented as mean ± standard deviation (SD), n = 8. IC50 values (the concentration of the tested compound that inhibited cell growth by 50%) were calculated using a concentration-response curve (GraphPad Prism, Software, San Diego, CA, USA).
(§10) The concentrations contributing to the 50% of cell growth inhibition (IC50) were calculated using nonlinear regression analysis (fitting the curve to log (concentration) vs. cellular response).

OCTs [8] = assay: Inhibition of [14C]choline uptake in MCF-7 cells (competitive inhibition assay); format: cell-based, human; conditions: mean ± SD (n = 3)
Description: as §4

MCF-7 cells [9] = assay: Uptake in the presence of OCT and MATE inhibitors, MCF-7 cells; format: in vitro ADME, human
Description: as §5

MCF-7 cells [10] = assay: Cell viability WST-1 assay, MCF-7; format: cell-based; conditions: Homo sapiens, MCF7; WST-1, 24 h, mean ± SD (n = 6–8); read-out: IC50 inhibition of MCF-7 cells' viability
Description: as §9, §10

[11] = compound and inhibitor 400 and 800 µmol/L, 10 min, 37 °C
[12] = summary from uptake with inhibitors
[13] = 800 μmol/L, 10 min incubation, 37 °C
[14] = Eadie-Hofstee analysis, transporter I
[15] = Eadie-Hofstee analysis, transporter II

## CC(C)(N=NC(C)(C)C(=N)N)C(=N)N.Cl.Cl [AAPH, 2,2′-Azobis(2-methylpropionamidine) dihydrochloride, reference compound]
MDA-MB-231 cells [1]
  GSH: 102.7 ± 3.2 nmol/1 mln Cells
  GSH:GSSG Ratio: 6.9
  GSSG: 14.3 ± 1.9 nmol/1 mln Cells
MCF-7 cells [2]
  GSH: 117.6 ± 7.8 nmol/1 mln Cells
  GSH:GSSG Ratio: 8.9
  GSSG: 12.8 ± 0.5 nmol/1 mln Cells

## CN(C)C(=N)N=C(N)NS(=O)(=O)c1ccc(Br)cc1 [Compound 6]
OCTs [3]
  IC50: 2.49 ± 0.211 mM
MDA-MB-231 cells [4]; [11]
  uptake in the presence of cimetidine, MDA-MB-231: significantly decreased
  uptake in the presence of disopyramide, MDA-MB-231: significantly decreased
  uptake in the presence of methenamine, MDA-MB-231: significantly decreased
MDA-MB-231 cells [4]; [12]
  interactions with OCT, PMAT and MATE1 transporters, MDA-MB-231: OCT1, OCT3, MATE1
MCF-7 cells [5]; [13]
  uptake into MCF-7 cells: 1.11 ± 0.16 nmol/min/mg protein
MCF-7 cells [5]; [14]
  Vmax, transporter I, MCF-7: 0.7898 ± 0.12 nmol/min/mg
MCF-7 cells [5]; Eadie-Hofstee analysis, transporter I, read-out: Km, transporter I, MCF-7
  Km: 0.308 ± 0.102 mM
MCF-7 cells [5]; [15]
  Vmax, transporter II, MCF-7: 13.64 ± 1.55 nmol/min/mg
MCF-7 cells [5]; Eadie-Hofstee analysis, transporter II, read-out: Km, transporter II, MCF-7
  Km: 8.93 ± 1.1 mM
MDA-MB-231 cells [6]; [13]
  uptake into MDA-MB-231 cells: 0.75 ± 0.29 nmol/min/mg protein
MDA-MB-231 cells [6]; [14]
  Vmax, transporter I, MDA-MB-231: 2.644 ± 0.22 nmol/min/mg
MDA-MB-231 cells [6]; Eadie-Hofstee analysis, transporter I, read-out: Km, transporter I, MDA-MB-231
  Km: 1.93 ± 0.223 mM
MDA-MB-231 cells [6]; [15]
  Vmax, transporter II, MDA-MB-231: 2.091 ± 0.15 nmol/min/mg
MDA-MB-231 cells [6]; Eadie-Hofstee analysis, transporter II, read-out: Km, transporter II, MDA-MB-231
  Km: 2.11 ± 0.172 mM
MDA-MB-231 cells [6]; Michaelis-Menten curve
  Vmax MDA-231 cells (Michaelis Menten curves): 4.044 ± 1.302 nmol/min/mg
MDA-MB-231 cells [6]; Michaelis-Menten curve, read-out: Km MDA-231 cells (Michaelis Menten curves)
  Km: 3.75 ± 1.6 mM
MDA-MB-231 cells [7]
  IC50: 2.11 ± 0.137 mM
OCTs [8]
  IC50: 2.06 ± 0.0584 mM
MCF-7 cells [9]; [11]
  uptake in the presence of disopyramide, MCF-7: significantly reduced
  uptake in the presence of lopinavir, MCF-7: significantly decreased
  uptake in the presence of methenamine, MCF-7: significantly decreased
MCF-7 cells [9]; [12]
  interactions with OCT, PMAT and MATE1 transporters, MCF-7: OCT1, PMAT, MATE1
MCF-7 cells [10]
  IC50: 1.14 ± 0.139 mM

## O=C1O[C@H]([C@@H](O)CO)C(O)=C1O [Ascorbic acid, reference compound]
MDA-MB-231 cells [1]
  GSH: 249.6 ± 20.8 nmol/1 mln Cells
  GSH:GSSG Ratio: 13.9
  GSSG: 17.9 ± 1.5 nmol/1 mln Cells
MCF-7 cells [2]
  GSH: 153.1 ± 5.4 nmol/1 mln Cells
  GSH:GSSG Ratio: 25.3
  GSSG: 6.0 ± 0.4 nmol/1 mln Cells
